{"source": "paper PMC9814781", "about": "“Structure-based design of a dual-warhead covalent inhibitor of FGFR4” (Communications Chemistry, 2022)", "key": {"[1]": {"target": "FGFR2 (Homo sapiens, UniProt P21802)", "sequence (P21802 453-770)": "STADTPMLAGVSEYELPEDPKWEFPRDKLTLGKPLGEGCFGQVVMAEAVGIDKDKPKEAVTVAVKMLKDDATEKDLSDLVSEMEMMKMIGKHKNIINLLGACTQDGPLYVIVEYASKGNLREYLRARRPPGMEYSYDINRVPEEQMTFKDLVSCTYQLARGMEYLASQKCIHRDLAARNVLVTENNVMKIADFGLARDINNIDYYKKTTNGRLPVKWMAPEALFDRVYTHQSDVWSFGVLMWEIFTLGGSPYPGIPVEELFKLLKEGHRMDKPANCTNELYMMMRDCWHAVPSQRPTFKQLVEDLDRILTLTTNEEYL", "experiment": "Kinase inhibition assay (ADP-Glo)", "type": "biochemical", "set-up": "FGFR2 (residues 453–770); 6xHis + PreScission site (N, cleaved yes); made in house; host or cells: Escherichia coli Rosseta", "experimental": "Wild-type FGFRs and mutant FGFRs were prepared as previously described[25]–[27]. In brief, the kinase domains of human FGFR1 (residues 456–765), FGFR2 (residues 453–770), FGFR3 (residues 450–758), and FGFR4 (residues 445–753) were cloned into a modified pET28a expression vector and then transfected into Escherichia coli Rosseta cells. The N-terminal of the recombinant proteins were contained a 6xHis tag followed by a PreScission cleavage site for FGFR1, FGFR2, FGFR3, and FGFR4. Site-directed mutagenesis of FGFR4 was generated according to the ClonExpress II One Step Cloning Kit (Vazyme) using the pET28a-FGFR4 plasmid as the template. These mutants were confirmed by DNA sequencing (Tsingke, Changsha, China). For crystallization experiments, the wild-type FGFR4 plasmid was co-expressed with untagged YOPH to obtain non-phosphorylated proteins. The proteins were first purified by Ni-NTA affinity chromatography. […]\nAll kinase inhibition assays were performed with optimized kinase assay buffer consisting of 40 mM Tris-HCl pH 7.5, 20 mM MgCl2, 20 mM NaCl, 0.1 mg/mL BSA, 1 mM TCEP, and 4% DMSO. […] Fluorescence was measured on a multimode plate reader (Perkin-Elmer) using a chemiluminescence program after the addition of the detection reagent. IC50 values were determined using a three-parameter log [Inhibitor] versus response model in GraphPad Prism software."}, "[2]": {"target": "JNK2 (Homo sapiens, UniProt P45984)", "experiment": "Kinase selectivity profiling"}, "[3]": {"target": "Her4(ERBB4) (Homo sapiens, UniProt Q15303)", "experiment": "Kinase selectivity profiling"}, "[4]": {"target": "NEK2 (Homo sapiens, UniProt P51955)", "experiment": "Kinase selectivity profiling"}, "[5]": {"target": "DAPK1 (Homo sapiens, UniProt P53355)", "experiment": "Kinase selectivity profiling"}, "[6]": {"target": "MAPKAPK2 (Homo sapiens, UniProt P49137)", "experiment": "Kinase selectivity profiling"}, "[7]": {"target": "Erk5 (Homo sapiens, UniProt Q13164)", "experiment": "Kinase selectivity profiling"}, "[8]": {"target": "FAK (Homo sapiens, UniProt Q05397)", "experiment": "Kinase selectivity profiling"}, "[9]": {"target": "TYRO3 (Homo sapiens, UniProt Q06418)", "experiment": "Kinase selectivity profiling"}, "[10]": {"target": "PIM1 (Homo sapiens, UniProt P11309)", "experiment": "Kinase selectivity profiling"}, "[11]": {"target": "IGF1R (Homo sapiens, UniProt P08069)", "experiment": "Kinase selectivity profiling"}, "[12]": {"target": "Erk1 (Homo sapiens, UniProt P27361)", "experiment": "Kinase selectivity profiling"}, "[13]": {"target": "EPHB4 (Homo sapiens, UniProt P54760)", "experiment": "Kinase selectivity profiling"}, "[14]": {"target": "YSK1 (Homo sapiens, UniProt O00506)", "experiment": "Kinase selectivity profiling"}, "[15]": {"target": "CK1γ3 (Homo sapiens, UniProt Q9Y6M4)", "experiment": "Kinase selectivity profiling"}, "[16]": {"target": "TRKC(NTRK3) (Homo sapiens, UniProt Q16288)", "experiment": "Kinase selectivity profiling"}, "[17]": {"target": "EPHA8 (Homo sapiens, UniProt P29322)", "experiment": "Kinase selectivity profiling"}, "[18]": {"target": "CLK1 (Homo sapiens, UniProt P49759)", "sequence (P49759 whole entry)": "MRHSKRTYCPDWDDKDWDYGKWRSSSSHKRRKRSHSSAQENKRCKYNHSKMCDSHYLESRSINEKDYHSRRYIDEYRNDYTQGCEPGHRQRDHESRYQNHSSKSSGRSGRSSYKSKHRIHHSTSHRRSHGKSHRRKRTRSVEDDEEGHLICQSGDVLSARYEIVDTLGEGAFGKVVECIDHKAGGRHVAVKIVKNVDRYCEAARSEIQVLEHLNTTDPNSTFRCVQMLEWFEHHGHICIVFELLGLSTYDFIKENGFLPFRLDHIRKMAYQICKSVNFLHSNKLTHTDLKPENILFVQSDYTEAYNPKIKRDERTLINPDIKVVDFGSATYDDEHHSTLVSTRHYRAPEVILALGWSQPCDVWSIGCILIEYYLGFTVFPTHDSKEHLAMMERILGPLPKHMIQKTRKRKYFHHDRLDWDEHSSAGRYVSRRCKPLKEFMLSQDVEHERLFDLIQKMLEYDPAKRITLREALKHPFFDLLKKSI", "experiment": "Kinase selectivity profiling"}, "[19]": {"target": "TGFbR1 (Homo sapiens, UniProt P36897)", "experiment": "Kinase selectivity profiling"}, "[20]": {"target": "TYK2 (Homo sapiens, UniProt P29597)", "experiment": "Kinase selectivity profiling"}, "[21]": {"target": "LYNa (Homo sapiens, UniProt P07948)", "sequence (P07948 whole entry)": "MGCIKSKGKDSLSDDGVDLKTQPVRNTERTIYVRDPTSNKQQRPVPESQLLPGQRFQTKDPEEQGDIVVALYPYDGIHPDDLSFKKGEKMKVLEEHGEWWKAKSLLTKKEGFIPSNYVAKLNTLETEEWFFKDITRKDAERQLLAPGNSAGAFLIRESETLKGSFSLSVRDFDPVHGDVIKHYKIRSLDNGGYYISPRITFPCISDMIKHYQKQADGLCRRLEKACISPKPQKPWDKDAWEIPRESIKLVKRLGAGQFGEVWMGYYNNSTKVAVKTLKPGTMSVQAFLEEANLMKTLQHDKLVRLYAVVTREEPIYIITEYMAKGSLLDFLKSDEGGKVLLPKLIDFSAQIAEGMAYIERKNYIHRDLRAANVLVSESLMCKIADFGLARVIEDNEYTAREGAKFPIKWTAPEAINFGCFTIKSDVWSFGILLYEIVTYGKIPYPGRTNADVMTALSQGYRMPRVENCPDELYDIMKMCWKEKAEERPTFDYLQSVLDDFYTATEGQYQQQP", "experiment": "Kinase selectivity profiling"}, "[22]": {"target": "KDR (VEGFR2) (Homo sapiens, UniProt P35968)", "experiment": "Kinase selectivity profiling"}, "[23]": {"target": "p38α (Homo sapiens, UniProt Q16539)", "sequence (Q16539 whole entry)": "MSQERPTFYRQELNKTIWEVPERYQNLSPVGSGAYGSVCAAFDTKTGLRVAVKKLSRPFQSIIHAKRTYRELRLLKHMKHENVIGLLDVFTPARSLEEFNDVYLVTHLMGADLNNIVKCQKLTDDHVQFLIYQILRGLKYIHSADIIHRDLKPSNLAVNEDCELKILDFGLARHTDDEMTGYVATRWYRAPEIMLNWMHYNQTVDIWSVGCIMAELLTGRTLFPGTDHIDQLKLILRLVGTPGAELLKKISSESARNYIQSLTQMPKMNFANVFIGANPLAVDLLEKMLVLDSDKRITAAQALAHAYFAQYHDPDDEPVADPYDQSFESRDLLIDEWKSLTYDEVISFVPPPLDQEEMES", "experiment": "Kinase selectivity profiling"}, "[24]": {"target": "ABL2 (Homo sapiens, UniProt P42684)", "sequence (P42684 whole entry)": "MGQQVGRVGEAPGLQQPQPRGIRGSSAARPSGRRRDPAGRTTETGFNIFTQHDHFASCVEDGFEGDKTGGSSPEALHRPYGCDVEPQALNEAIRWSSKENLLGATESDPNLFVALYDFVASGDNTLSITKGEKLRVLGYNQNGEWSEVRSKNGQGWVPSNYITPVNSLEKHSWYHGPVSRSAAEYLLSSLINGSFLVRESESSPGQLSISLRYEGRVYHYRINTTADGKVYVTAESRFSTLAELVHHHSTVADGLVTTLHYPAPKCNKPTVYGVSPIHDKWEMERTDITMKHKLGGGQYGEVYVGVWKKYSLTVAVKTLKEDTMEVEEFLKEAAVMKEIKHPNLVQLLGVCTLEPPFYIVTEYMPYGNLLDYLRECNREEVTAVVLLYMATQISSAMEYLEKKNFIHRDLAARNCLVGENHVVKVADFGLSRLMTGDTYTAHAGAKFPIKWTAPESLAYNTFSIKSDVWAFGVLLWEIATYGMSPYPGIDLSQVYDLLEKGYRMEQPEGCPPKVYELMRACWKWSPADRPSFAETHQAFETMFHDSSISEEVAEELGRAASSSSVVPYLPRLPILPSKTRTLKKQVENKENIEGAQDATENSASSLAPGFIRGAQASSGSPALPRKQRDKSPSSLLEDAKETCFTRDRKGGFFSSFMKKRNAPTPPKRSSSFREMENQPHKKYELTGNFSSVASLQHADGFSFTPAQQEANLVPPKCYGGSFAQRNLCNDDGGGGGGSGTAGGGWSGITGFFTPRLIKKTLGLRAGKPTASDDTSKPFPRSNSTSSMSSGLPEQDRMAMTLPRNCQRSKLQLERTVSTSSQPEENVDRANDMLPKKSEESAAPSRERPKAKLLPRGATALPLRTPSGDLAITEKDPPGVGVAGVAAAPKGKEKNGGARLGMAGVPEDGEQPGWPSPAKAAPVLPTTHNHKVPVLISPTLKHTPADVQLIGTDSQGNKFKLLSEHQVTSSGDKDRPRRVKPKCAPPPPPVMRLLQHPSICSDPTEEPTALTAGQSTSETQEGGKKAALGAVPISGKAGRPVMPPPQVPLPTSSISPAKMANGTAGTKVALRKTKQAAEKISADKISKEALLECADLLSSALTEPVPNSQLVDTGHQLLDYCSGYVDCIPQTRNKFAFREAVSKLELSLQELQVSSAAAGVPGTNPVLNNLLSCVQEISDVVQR", "experiment": "Kinase selectivity profiling"}, "[25]": {"target": "PIM2 (Homo sapiens, UniProt Q9P1W9)", "sequence (Q9P1W9 whole entry)": "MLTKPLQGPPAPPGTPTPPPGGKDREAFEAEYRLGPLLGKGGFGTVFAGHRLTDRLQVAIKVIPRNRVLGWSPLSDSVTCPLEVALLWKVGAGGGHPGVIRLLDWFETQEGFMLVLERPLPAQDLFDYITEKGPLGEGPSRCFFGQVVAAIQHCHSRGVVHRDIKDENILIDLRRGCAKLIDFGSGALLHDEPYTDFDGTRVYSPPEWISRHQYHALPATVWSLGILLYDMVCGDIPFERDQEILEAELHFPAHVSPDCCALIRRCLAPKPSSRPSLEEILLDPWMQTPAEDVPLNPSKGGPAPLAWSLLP", "experiment": "Kinase selectivity profiling"}, "[26]": {"target": "PLK1 (Homo sapiens, UniProt P53350)", "experiment": "Kinase selectivity profiling"}, "[27]": {"target": "PIK3CA/PIK3R1 (Homo sapiens, UniProt P42336)", "sequence (P42336 whole entry)": "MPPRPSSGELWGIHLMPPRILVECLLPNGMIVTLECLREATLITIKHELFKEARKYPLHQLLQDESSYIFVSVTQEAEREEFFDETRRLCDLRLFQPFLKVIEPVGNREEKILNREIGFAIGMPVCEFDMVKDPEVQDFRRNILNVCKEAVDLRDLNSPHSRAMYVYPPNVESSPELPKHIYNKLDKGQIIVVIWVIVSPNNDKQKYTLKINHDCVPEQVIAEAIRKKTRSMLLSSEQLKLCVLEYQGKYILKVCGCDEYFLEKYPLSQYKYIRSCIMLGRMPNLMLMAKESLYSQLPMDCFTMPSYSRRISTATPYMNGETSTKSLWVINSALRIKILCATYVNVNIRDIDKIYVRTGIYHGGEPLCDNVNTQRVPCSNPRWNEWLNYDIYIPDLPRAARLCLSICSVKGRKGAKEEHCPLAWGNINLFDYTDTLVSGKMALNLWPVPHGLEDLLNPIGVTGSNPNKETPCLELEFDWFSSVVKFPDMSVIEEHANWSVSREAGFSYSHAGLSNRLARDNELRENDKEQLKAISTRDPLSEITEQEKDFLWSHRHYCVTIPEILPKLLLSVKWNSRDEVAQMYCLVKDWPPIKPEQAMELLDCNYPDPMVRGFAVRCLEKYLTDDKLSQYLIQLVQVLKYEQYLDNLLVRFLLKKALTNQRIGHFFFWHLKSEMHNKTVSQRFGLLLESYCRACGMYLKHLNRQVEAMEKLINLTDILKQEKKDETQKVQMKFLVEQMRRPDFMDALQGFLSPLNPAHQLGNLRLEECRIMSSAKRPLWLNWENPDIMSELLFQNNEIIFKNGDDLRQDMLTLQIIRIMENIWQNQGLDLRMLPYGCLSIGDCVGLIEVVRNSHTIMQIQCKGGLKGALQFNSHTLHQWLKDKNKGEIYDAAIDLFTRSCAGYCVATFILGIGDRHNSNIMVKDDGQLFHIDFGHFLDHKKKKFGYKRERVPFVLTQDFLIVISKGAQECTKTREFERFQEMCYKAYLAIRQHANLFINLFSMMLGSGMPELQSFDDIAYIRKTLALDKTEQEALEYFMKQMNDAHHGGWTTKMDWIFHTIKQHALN", "sequence (P27986 whole entry partner)": "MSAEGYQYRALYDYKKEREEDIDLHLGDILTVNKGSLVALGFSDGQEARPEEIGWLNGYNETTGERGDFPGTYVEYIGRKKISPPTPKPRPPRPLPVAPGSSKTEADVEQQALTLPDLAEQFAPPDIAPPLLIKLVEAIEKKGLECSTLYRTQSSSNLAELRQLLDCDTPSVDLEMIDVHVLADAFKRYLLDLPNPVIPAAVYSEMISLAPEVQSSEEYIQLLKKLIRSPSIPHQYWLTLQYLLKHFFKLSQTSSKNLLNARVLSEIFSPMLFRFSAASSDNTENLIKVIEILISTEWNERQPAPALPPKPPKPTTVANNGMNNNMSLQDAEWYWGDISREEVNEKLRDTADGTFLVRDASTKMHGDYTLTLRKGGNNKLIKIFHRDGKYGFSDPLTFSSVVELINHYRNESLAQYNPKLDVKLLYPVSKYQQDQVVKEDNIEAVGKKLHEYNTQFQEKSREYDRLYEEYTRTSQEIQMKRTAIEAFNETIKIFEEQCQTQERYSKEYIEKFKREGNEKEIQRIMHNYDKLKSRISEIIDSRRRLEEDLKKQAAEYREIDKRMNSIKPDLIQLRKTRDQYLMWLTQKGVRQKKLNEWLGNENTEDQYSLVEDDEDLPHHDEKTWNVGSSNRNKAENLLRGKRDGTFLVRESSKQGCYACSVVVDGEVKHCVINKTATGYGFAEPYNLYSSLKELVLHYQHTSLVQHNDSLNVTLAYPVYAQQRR", "experiment": "Kinase selectivity profiling"}, "[28]": {"target": "AurB (Homo sapiens, UniProt Q96GD4)", "experiment": "Kinase selectivity profiling"}}}
{"molecule": "C=CC(=O)Nc1ccccc1Nc1ncc2c(n1)N(CCCN1CCN(C(=O)C=C)CC1)C(=O)N(c1cc(OC)cc(OC)c1)C2", "note": "[CXF-009]", "values": [{"measurement": "IC50", "setting": "[1]", "value": 2410, "unit": "nM"}, {"measurement": "inhibition at 1 µM", "setting": "[2]", "value": 0.4, "unit": "%"}, {"measurement": "inhibition at 1 µM", "setting": "[3]", "value": 0.69, "unit": "%"}, {"measurement": "inhibition at 1 µM", "setting": "[4]", "value": 17.9, "unit": "%"}, {"measurement": "inhibition at 1 µM", "setting": "[5]", "value": 2.52, "unit": "%"}, {"measurement": "inhibition at 1 µM", "setting": "[6]", "value": 0.15, "unit": "%"}, {"measurement": "inhibition at 1 µM", "setting": "[7]", "value": 14, "unit": "%"}, {"measurement": "inhibition at 1 µM", "setting": "[8]", "value": -0.41, "unit": "%"}, {"measurement": "inhibition at 1 µM", "setting": "[9]", "value": 0.8, "unit": "%"}, {"measurement": "inhibition at 1 µM", "setting": "[10]", "value": 24.2, "unit": "%"}, {"measurement": "inhibition at 1 µM", "setting": "[11]", "value": -2.13, "unit": "%"}, {"measurement": "inhibition at 1 µM", "setting": "[12]", "value": 3.99, "unit": "%"}, {"measurement": "inhibition at 1 µM", "setting": "[13]", "value": -1.86, "unit": "%"}, {"measurement": "inhibition at 1 µM", "setting": "[14]", "value": -8.51, "unit": "%"}, {"measurement": "inhibition at 1 µM", "setting": "[15]", "value": -7.86, "unit": "%"}, {"measurement": "inhibition at 1 µM", "setting": "[16]", "value": 8.57, "unit": "%"}, {"measurement": "inhibition at 1 µM", "setting": "[17]", "value": -0.52, "unit": "%"}, {"measurement": "inhibition at 1 µM", "setting": "[18]", "value": 1.48, "unit": "%"}, {"measurement": "inhibition at 1 µM", "setting": "[19]", "value": 1.08, "unit": "%"}, {"measurement": "inhibition at 1 µM", "setting": "[20]", "value": -5.05, "unit": "%"}, {"measurement": "inhibition at 1 µM", "setting": "[21]", "value": -2.53, "unit": "%"}, {"measurement": "inhibition at 1 µM", "setting": "[22]", "value": -5.37, "unit": "%"}, {"measurement": "inhibition at 1 µM", "setting": "[23]", "value": 10.6, "unit": "%"}, {"measurement": "inhibition at 1 µM", "setting": "[24]", "value": 1.61, "unit": "%"}, {"measurement": "inhibition at 1 µM", "setting": "[25]", "value": 2.38, "unit": "%"}, {"measurement": "inhibition at 1 µM", "setting": "[26]", "value": 0.59, "unit": "%"}, {"measurement": "inhibition at 1 µM", "setting": "[27]", "value": -35, "unit": "%"}, {"measurement": "inhibition at 1 µM", "setting": "[28]", "value": -2.47, "unit": "%"}]}
